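These data come from cells grown in 96-well plates and exposed to compound for 48 hours at five concentrations. At the GI50, growth is halved. TGI marks complete inhibition of growth.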

One assay deals with SK-MEL-2 melanoma. Briefly: NCI-60 cell line screen, 48 h.
`COc1cc(NCC(C#N)C#N)ccc1N=Nc1ccc(Cl)cc1` came in with a TGI of 46.9 µM.

For `CC(=O)c1ccc(NC(=O)/C(CC(=O)c2sc(-c3cccnc3)nc2C)=N/NC(N)=O)cc1`, the TGI was > 100 µM.

Turning to `Cc1ccc(S(=O)(=O)OC2CC=CC2)cc1`, the TGI is > 100 µM.

As to `COC(=O)C(=O)CC(=O)CCn1[nH]c(=O)c(Cl)c(Cl)c1=O`, the TGI was > 100 µM.

As for `COc1ccc(NC(=O)CC/C(CC(=O)c2ccco2)=N/NC(=O)C(N)=O)cc1`, the TGI is > 100 µM.

On to `CC(=O)C1C(c2ccccc2)C2(C)OC(=O)C(C#N)C12C` (stereo unspecified), for which the TGI is > 100 µM.

For `C[C@]12CC=CC(=O)[C@@]1(C)CCC(=O)C2`, the TGI was > 100 µM.

On to `CC(=O)Oc1cc2c(cc1OC(C)=O)C1(C)CCC2(C)c2cc(OC(C)=O)c(OC(C)=O)cc21`, for which the TGI is 66.4 µM.

The next assay deals with HCC-2998 colon. Nature of the assay: NCI-60 cell line screen, 48 h.
Turning to `C[C@]12CCc3sc(Nc4ccc(OC(F)(F)F)cc4)nc3C1=CC[C@@H]1[C@@H]2CC[C@]2(C)C(=O)CC[C@@H]12`, the GI50 was 5.32 µM and the TGI was found to be 18.6 µM.

Consider `CCC1=CCN(c2cc(C)ccn2)OC1c1ccc(OC)cc1` (stereo unspecified), for which the TGI stood at 86.8 µM.

Take `CC(=O)Oc1c(C)c(-c2ccccc2)c(C)c(-c2ccccc2)c1C(=S)c1ccccc1`: the TGI was > 100 µM.

Turning to `N#CCC(=O)N/N=C1/C(=O)N(c2ccc(Cl)cc2)C(=O)C(=O)C1c1nc2ccccc2s1` (stereo unspecified), the TGI is > 100 µM.

Turning to `CCCCCCCCCCCC(=O)OCCOCCOCCOCCOCCOC(=O)CCCCCCCCCCC`, the TGI is > 100 µM.

With `COc1ccc(C=O)cc1O[Si](C)(C)C(C)(C)C`, the TGI is > 100 µM.

With `CC1(O)C(C)(O)C2(C)O[Te]3(OC12C)OC1(C)C(C)(O)C(C)(O)C1(C)O3` (stereo unspecified), the TGI was > 100 µM.

In the case of `O=C1COc2cc(NC(=S)Nc3ccccc3)ccc2N1`, the TGI was > 100 µM.

Take `CCCCCCCCn1ccc2cc(NC(=O)Cn3cc(CN4CCCCCC4)nn3)ccc21`: the GI50 is 1.78 µM and the TGI was determined as 3.35 µM.

For the compound `O=S(=O)(C1=CC(S(=O)(=O)c2ccccc2)CN(Cc2ccccc2)C1c1cccc2ccccc12)c1ccccc1` (stereo unspecified), the TGI is > 69 µM.

With `O=C1C=C(Nc2ccccc2C(=O)CC(=O)C(=O)Nc2cccc([N+](=O)[O-])c2)c2ccccc2C1=O`, the TGI is > 100 µM.

Consider `CCC[CH2][Sn]([CH2]CCC)([O]C(=O)CN)[O]C(=O)CN`, for which the GI50 was 93.3 µM and the TGI is > 100 µM.

Consider `O=C(Nc1ccc(C(F)(F)F)cc1[N+](=O)[O-])C(=O)C1NC(=S)NC1=O` (stereo unspecified), for which the TGI was > 100 µM.

For `COc1cc(NCC(C#N)C#N)ccc1N=Nc1ccc(Cl)cc1`, the TGI stood at 35.1 µM.

As for `Cc1ccc(S(=O)(=O)OC2CC=CC2)cc1`, the TGI is > 100 µM.

Regarding `C=CC[P@]1(=O)O[C@H](c2ccccc2)[C@H](C)N1C`, the TGI was > 100 µM.

Consider `O=C(Nc1cccc(O)c1)C(=O)C1C(=O)NC(=S)NC1=O`, for which the TGI is > 100 µM.

For the compound `O=C1N/C(=C\[N+](=O)[O-])c2ccccc21`, the TGI is > 100 µM.

Take `COC(=O)C(=O)CC(=O)CCn1[nH]c(=O)c(Cl)c(Cl)c1=O`: the TGI is > 100 µM.

With `OCC12C=CC(C1)c1ccccc12` (stereo unspecified), the TGI is > 100 µM.

On to `COc1ccc(NC(=O)CC/C(CC(=O)c2ccco2)=N/NC(=O)C(N)=O)cc1`, for which the TGI was > 100 µM.

Turning to `NC(CCCC(N)P(=O)(O)O)P(=O)(O)O` (stereo unspecified), the TGI was > 100 µM.

As to `C[C@]12CC=CC(=O)[C@@]1(C)CCC(=O)C2`, the TGI was > 100 µM.

In turn, `CC(=O)Oc1cc2c(cc1OC(C)=O)C1(C)CCC2(C)c2cc(OC(C)=O)c(OC(C)=O)cc21` registered a TGI of 71.9 µM.

In another assay the test system is SK-MEL-28 melanoma. Nature of the assay: NCI-60 cell line screen, 48 h.
Regarding `C[C@]12CCc3sc(Nc4ccc(OC(F)(F)F)cc4)nc3C1=CC[C@@H]1[C@@H]2CC[C@]2(C)C(=O)CC[C@@H]12`, the GI50 was 1880 nM and the TGI is 7.98 µM.

In turn, `CCC1=CCN(c2cc(C)ccn2)OC1c1ccc(OC)cc1` (stereo unspecified) came in with a TGI of 64.9 µM.

`CC(=O)Oc1c(C)c(-c2ccccc2)c(C)c(-c2ccccc2)c1C(=S)c1ccccc1`: the TGI was > 100 µM.

Turning to `N#CCC(=O)N/N=C1/C(=O)N(c2ccc(Cl)cc2)C(=O)C(=O)C1c1nc2ccccc2s1` (stereo unspecified), the TGI is > 100 µM.

For `CCCCCCCCCCCC(=O)OCCOCCOCCOCCOCCOC(=O)CCCCCCCCCCC`, the TGI is > 100 µM.

For the compound `CC1(O)C(C)(O)C2(C)O[Te]3(OC12C)OC1(C)C(C)(O)C(C)(O)C1(C)O3` (stereo unspecified), the TGI was 38.1 µM.

Consider `O=C1COc2cc(NC(=S)Nc3ccccc3)ccc2N1`, for which the TGI was > 100 µM.

With `CCCCCCCCn1ccc2cc(NC(=O)Cn3cc(CN4CCCCCC4)nn3)ccc21`, the GI50 is 1820 nM and the TGI amounted to 3.3 µM.

On to `O=S(=O)(C1=CC(S(=O)(=O)c2ccccc2)CN(Cc2ccccc2)C1c1cccc2ccccc12)c1ccccc1` (stereo unspecified), for which the TGI was > 69 µM.

Turning to `O=C1C=C(Nc2ccccc2C(=O)CC(=O)C(=O)Nc2cccc([N+](=O)[O-])c2)c2ccccc2C1=O`, the TGI is > 100 µM.

As for `O=C(Nc1ccc(Cl)cc1)C1C(=O)C(=O)N(c2ccc(Cl)cc2)C1=O` (stereo unspecified), the TGI is > 100 µM.

As to `CCC[CH2][Sn]([CH2]CCC)([O]C(=O)CN)[O]C(=O)CN`, the GI50 was 29200 nM and the TGI was > 100 µM.

Take `O=C(Nc1ccc(C(F)(F)F)cc1[N+](=O)[O-])C(=O)C1NC(=S)NC1=O` (stereo unspecified): the TGI was > 100 µM.

In the case of `COc1cc(NCC(C#N)C#N)ccc1N=Nc1ccc(Cl)cc1`, the TGI worked out at 80.1 µM.

As for `CC(=O)c1ccc(NC(=O)/C(CC(=O)c2sc(-c3cccnc3)nc2C)=N/NC(N)=O)cc1`, the TGI is > 100 µM.

Turning to `Cc1ccc(S(=O)(=O)OC2CC=CC2)cc1`, the TGI was > 100 µM.

In the case of `C=CC[P@]1(=O)O[C@H](c2ccccc2)[C@H](C)N1C`, the TGI was > 100 µM.

Consider `O=C(Nc1cccc(O)c1)C(=O)C1C(=O)NC(=S)NC1=O`, for which the TGI is > 100 µM.

In the case of `O=C1N/C(=C\[N+](=O)[O-])c2ccccc21`, the TGI was > 100 µM.

With `COC(=O)C(=O)CC(=O)CCn1[nH]c(=O)c(Cl)c(Cl)c1=O`, the TGI was > 100 µM.

Turning to `OCC12C=CC(C1)c1ccccc12` (stereo unspecified), the TGI was > 100 µM.

For the compound `COc1ccc(NC(=O)CC/C(CC(=O)c2ccco2)=N/NC(=O)C(N)=O)cc1`, the TGI was > 100 µM.

Take `NC(CCCC(N)P(=O)(O)O)P(=O)(O)O` (stereo unspecified): the TGI is > 100 µM.

As to `CCOC(=O)[CH-]C(=O)C12CC3CC(CC(C3)C1)C2.CCOC(=O)[CH-]C(=O)C12CC3CC(CC(C3)C1)C2.CC[O-].CC[O-].[Ti+4]`, the GI50 was > 100000 nM and the TGI was > 100 µM.

For `CC(=O)C1C(c2ccccc2)C2(C)OC(=O)C(C#N)C12C` (stereo unspecified), the TGI was > 100 µM.

On to `C[C@]12CC=CC(=O)[C@@]1(C)CCC(=O)C2`, for which the TGI is > 100 µM.

`CC(=O)Oc1cc2c(cc1OC(C)=O)C1(C)CCC2(C)c2cc(OC(C)=O)c(OC(C)=O)cc21`: the TGI was > 100 µM.
